# Laboratory results from PubChem BioAssay AID1963852 (Molecular Pharmacology Branch, DTP, NCI, 2024).
# pIC50: −log10 of the molar value.
# Test system: 282377-053-R-J1-PDC complex spheroid viability
# Experiment: Anticancer human tumor 282377-053-R-J1-PDC patient-derived colon adenocarcinoma cell line growth inhibition [POLQ]
# Conditions: for pIC50: curve of first compound; for viability, T/C: stronger effect = lower value
# In short: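 Three-cell-type spheroids modelling solid tumor plus stroma served as the readout system; POL inhibitors were tested individually and in combination, concentration ranges set by clinical Cmax where known.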
# [1] = second compound 0.0316 µM, first compound 0.0316 µM
# [2] = second compound 0.0316 µM, first compound 0.1 µM
# [3] = second compound 0.1 µM, first compound 0.0316 µM
# [4] = second compound 0.1 µM, first compound 0.1 µM
# [5] = second compound 0.316 µM, first compound 0.0316 µM
# [6] = second compound 0.316 µM, first compound 0.1 µM
# [7] = second compound 1 µM, first compound 0.0316 µM
# [8] = second compound 1 µM, first compound 0.1 µM
# [9] = second compound 3.16 µM, first compound 0.0316 µM
# [10] = second compound 3.16 µM, first compound 0.1 µM
# [11] = second compound 10 µM, first compound 0.0316 µM
# [12] = second compound 10 µM, first compound 0.1 µM
# [13] = second compound 0.0316 µM, first compound 0.316 µM
# [14] = second compound 0.0316 µM, first compound 1 µM
# [15] = second compound 0.0316 µM, first compound 3.16 µM
# [16] = second compound 0.0316 µM, first compound 10 µM
# [17] = second compound 0.1 µM, first compound 0.316 µM
# [18] = second compound 0.1 µM, first compound 1 µM
# [19] = second compound 0.1 µM, first compound 3.16 µM
# [20] = second compound 0.1 µM, first compound 10 µM
# [21] = second compound 0.316 µM, first compound 0.316 µM
# [22] = second compound 0.316 µM, first compound 1 µM
# [23] = second compound 0.316 µM, first compound 3.16 µM
# [24] = second compound 0.316 µM, first compound 10 µM
# [25] = second compound 1 µM, first compound 0.316 µM
# [26] = second compound 1 µM, first compound 1 µM
# [27] = second compound 1 µM, first compound 3.16 µM
# [28] = second compound 1 µM, first compound 10 µM
# [29] = second compound 3.16 µM, first compound 0.316 µM
# [30] = second compound 3.16 µM, first compound 1 µM
# [31] = second compound 3.16 µM, first compound 3.16 µM
# [32] = second compound 3.16 µM, first compound 10 µM
# [33] = second compound 10 µM, first compound 0.316 µM
# [34] = second compound 10 µM, first compound 1 µM
# [35] = second compound 10 µM, first compound 3.16 µM
# [36] = second compound 10 µM, first compound 10 µM
# 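Note: spheroids exposed to compounds for seven days.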
# 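Throughout, for viability, T/C: 100% = DMSO vehicle control viability.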
smiles,measurement,setting,value
Cn1ncnc1[C@H]1c2n[nH]c(=O)c3cc(F)cc(c23)N[C@@H]1c1ccc(F)cc1 + Nc1ccc(C#CCN(C(=O)Cc2ncc(C(F)(F)F)cc2C(F)(F)F)c2ccc(F)cc2)nn1,pIC50,second compound 0.0316 µM,< 7.00
same,pIC50,second compound 0.1 µM,< 7.00
same,pIC50,second compound 0.316 µM,< 7.00
same,pIC50,second compound 1 µM,< 7.00
same,pIC50,second compound 3.16 µM,< 7.00
same,pIC50,second compound 10 µM,< 7.00
same,"viability, T/C","second compound 0.0316 µM, first compound 0.000316 µM",98.9%
same,"viability, T/C","second compound 0.0316 µM, first compound 0.001 µM",94.9%
same,"viability, T/C","second compound 0.0316 µM, first compound 0.00316 µM",91.9%
same,"viability, T/C","second compound 0.0316 µM, first compound 0.01 µM",101%
same,"viability, T/C",[1],108%
same,"viability, T/C",[2],94.3%
same,"viability, T/C","second compound 0.1 µM, first compound 0.000316 µM",105%
same,"viability, T/C","second compound 0.1 µM, first compound 0.001 µM",108%
same,"viability, T/C","second compound 0.1 µM, first compound 0.00316 µM",84.1%
same,"viability, T/C","second compound 0.1 µM, first compound 0.01 µM",97.3%
same,"viability, T/C",[3],100%
same,"viability, T/C",[4],81.9%
same,"viability, T/C","second compound 0.316 µM, first compound 0.000316 µM",99%
same,"viability, T/C","second compound 0.316 µM, first compound 0.001 µM",93.7%
same,"viability, T/C","second compound 0.316 µM, first compound 0.00316 µM",108%
same,"viability, T/C","second compound 0.316 µM, first compound 0.01 µM",93.8%
same,"viability, T/C",[5],97.7%
same,"viability, T/C",[6],95.2%
same,"viability, T/C","second compound 1 µM, first compound 0.000316 µM",102%
same,"viability, T/C","second compound 1 µM, first compound 0.001 µM",96.8%
same,"viability, T/C","second compound 1 µM, first compound 0.00316 µM",94.5%
same,"viability, T/C","second compound 1 µM, first compound 0.01 µM",86.9%
same,"viability, T/C",[7],103%
same,"viability, T/C",[8],104%
same,"viability, T/C","second compound 3.16 µM, first compound 0.000316 µM",105%
same,"viability, T/C","second compound 3.16 µM, first compound 0.001 µM",100%
same,"viability, T/C","second compound 3.16 µM, first compound 0.00316 µM",100%
same,"viability, T/C","second compound 3.16 µM, first compound 0.01 µM",110%
same,"viability, T/C",[9],113%
same,"viability, T/C",[10],93.9%
same,"viability, T/C","second compound 10 µM, first compound 0.000316 µM",122%
same,"viability, T/C","second compound 10 µM, first compound 0.001 µM",119%
same,"viability, T/C","second compound 10 µM, first compound 0.00316 µM",121%
same,"viability, T/C","second compound 10 µM, first compound 0.01 µM",119%
same,"viability, T/C",[11],111%
same,"viability, T/C",[12],127%
O=C(c1cc(Cc2n[nH]c(=O)c3ccccc23)ccc1F)N1CCN(C(=O)C2CC2)CC1 + Nc1ccc(C#CCN(C(=O)Cc2ncc(C(F)(F)F)cc2C(F)(F)F)c2ccc(F)cc2)nn1,pIC50,second compound 0.0316 µM,< 5.00
same,pIC50,second compound 0.1 µM,< 5.00
same,pIC50,second compound 0.316 µM,< 5.00
same,pIC50,second compound 1 µM,< 5.00
same,pIC50,second compound 3.16 µM,< 5.00
same,pIC50,second compound 10 µM,< 5.00
same,"viability, T/C",[1],114%
same,"viability, T/C",[2],104%
same,"viability, T/C",[13],101%
same,"viability, T/C",[14],105%
same,"viability, T/C",[15],121%
same,"viability, T/C",[16],105%
same,"viability, T/C",[3],112%
same,"viability, T/C",[4],123%
same,"viability, T/C",[17],98.6%
same,"viability, T/C",[18],102%
same,"viability, T/C",[19],117%
same,"viability, T/C",[20],118%
same,"viability, T/C",[5],113%
same,"viability, T/C",[6],97.1%
same,"viability, T/C",[21],104%
same,"viability, T/C",[22],95.2%
same,"viability, T/C",[23],109%
same,"viability, T/C",[24],94.8%
same,"viability, T/C",[7],119%
same,"viability, T/C",[8],103%
same,"viability, T/C",[25],105%
same,"viability, T/C",[26],110%
same,"viability, T/C",[27],112%
same,"viability, T/C",[28],109%
same,"viability, T/C",[9],111%
same,"viability, T/C",[10],109%
same,"viability, T/C",[29],111%
same,"viability, T/C",[30],106%
same,"viability, T/C",[31],118%
same,"viability, T/C",[32],115%
same,"viability, T/C",[11],122%
same,"viability, T/C",[12],106%
same,"viability, T/C",[33],130%
same,"viability, T/C",[34],121%
same,"viability, T/C",[35],129%
same,"viability, T/C",[36],127%
CC(C)n1c(=O)n(C)c2cnc3cc(F)c(-c4ccc(OCCCN5CCCCC5)nc4)cc3c21 + COC1C(OC(N)=O)C(O)C(Oc2ccc3c(O)c(NC(=O)c4ccc(O)c(CC=C(C)C)c4)c(=O)oc3c2C)OC1(C)C,pIC50,second compound 0.0316 µM,< 5.00
same,pIC50,second compound 0.1 µM,< 5.00
same,pIC50,second compound 0.316 µM,< 5.00
same,pIC50,second compound 1 µM,< 5.00
same,pIC50,second compound 3.16 µM,< 5.00
same,pIC50,second compound 10 µM,< 5.00
same,"viability, T/C",[1],116%
same,"viability, T/C",[2],125%
same,"viability, T/C",[13],113%
same,"viability, T/C",[14],104%
same,"viability, T/C",[15],112%
same,"viability, T/C",[16],120%
same,"viability, T/C",[3],107%
same,"viability, T/C",[4],116%
same,"viability, T/C",[17],110%
same,"viability, T/C",[18],104%
same,"viability, T/C",[19],118%
same,"viability, T/C",[20],103%
same,"viability, T/C",[5],108%
same,"viability, T/C",[6],93%
same,"viability, T/C",[21],105%
same,"viability, T/C",[22],108%
same,"viability, T/C",[23],107%
same,"viability, T/C",[24],89.6%
same,"viability, T/C",[7],112%
same,"viability, T/C",[8],88.4%
same,"viability, T/C",[25],99.5%
same,"viability, T/C",[26],106%
same,"viability, T/C",[27],119%
same,"viability, T/C",[28],78.4%
same,"viability, T/C",[9],113%
same,"viability, T/C",[10],114%
same,"viability, T/C",[29],108%
same,"viability, T/C",[30],114%
same,"viability, T/C",[31],106%
same,"viability, T/C",[32],101%
same,"viability, T/C",[11],98.2%
same,"viability, T/C",[12],104%
same,"viability, T/C",[33],93.8%
same,"viability, T/C",[34],99.2%
same,"viability, T/C",[35],95.8%
same,"viability, T/C",[36],98.8%
